In PubChem BioAssay AID1963439 (Molecular Pharmacology Branch, DTP, NCI, 2024):
“And” between values parts separate entries of the source, which are not always exact repeats. Equal entries are not always repeated.

Test system: NCI-H196 complex spheroids with HUVEC/MSC, growth % T/C
Assay: Anticancer human tumor NCI-H196 cell line growth inhibition [Asc];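 note: spheroids exposed to compound for 7 days before measurement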;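 for viability, T/C: 100% = DMSO vehicle control wells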
Conditions: for viability, T/C: stronger effect = lower value; active = viability on the fitted dose curve at most 10% of control; inactive = the rest
Procedure, shortened: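 Spheroid model: tumor line + HUVEC + hMSC. Single agents and combinations; top conc. at/near clinical Cmax (10 microM if undetermined), half-log dilutions. DMSO stocks at 800-fold test concentration.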

[1] = curve of first compound, second compound 0.1 µM
[2] = curve of first compound, second compound 0.316 µM
[3] = curve of first compound, second compound 1 µM
[4] = curve of first compound, second compound 3.16 µM
[5] = curve of first compound, second compound 10 µM
[6] = second compound 0.1 µM, first compound 0.0316 µM
[7] = second compound 0.1 µM, first compound 0.1 µM
[8] = second compound 0.1 µM, first compound 0.316 µM
[9] = second compound 0.1 µM, first compound 1 µM
[10] = second compound 0.316 µM, first compound 0.0316 µM
[11] = second compound 0.316 µM, first compound 0.1 µM
[12] = second compound 0.316 µM, first compound 0.316 µM
[13] = second compound 0.316 µM, first compound 1 µM
[14] = second compound 1 µM, first compound 0.0316 µM
[15] = second compound 1 µM, first compound 0.1 µM
[16] = second compound 1 µM, first compound 0.316 µM
[17] = second compound 1 µM, first compound 1 µM
[18] = second compound 3.16 µM, first compound 0.0316 µM
[19] = second compound 3.16 µM, first compound 0.1 µM
[20] = second compound 3.16 µM, first compound 0.316 µM
[21] = second compound 3.16 µM, first compound 1 µM
[22] = second compound 10 µM, first compound 0.0316 µM
[23] = second compound 10 µM, first compound 0.1 µM
[24] = second compound 10 µM, first compound 0.316 µM
[25] = second compound 10 µM, first compound 1 µM

NC(=O)C(=Cn1cnc(-c2cc(C(F)(F)F)cc(C(F)(F)F)c2)n1)c1cncnc1 + CNC(C)C(=O)NC1CN(S(=O)(=O)c2cccc(S(=O)(=O)N3CCC4CCC(C(=O)NC(c5ccccc5)c5ccccc5)N4C(=O)C(NC(=O)C(C)NC)C3)c2)CCC2CCC(C(=O)NC(c3ccccc3)c3ccccc3)N2C1=O
active: viability, T/C (second compound 0.01 µM, first compound 0.000949 µM) 9.08% | viability, T/C (second compound 0.01 µM, first compound 0.003 µM) 6.89% | viability, T/C (second compound 0.01 µM, first compound 0.00949 µM) 9.23% | viability, T/C (second compound 0.01 µM, first compound 0.03 µM) 5% | viability, T/C (second compound 0.01 µM, first compound 0.0949 µM) 6.27% | viability, T/C (second compound 0.01 µM, first compound 0.3 µM) 3.41% | viability, T/C (second compound 0.0316 µM, first compound 0.000949 µM) 5.94% | viability, T/C (second compound 0.0316 µM, first compound 0.003 µM) 4.91% | viability, T/C (second compound 0.0316 µM, first compound 0.00949 µM) 5.48% | viability, T/C (second compound 0.0316 µM, first compound 0.03 µM) 5.12% | viability, T/C (second compound 0.0316 µM, first compound 0.0949 µM) 4.08% | viability, T/C (second compound 0.0316 µM, first compound 0.3 µM) 1.99% | viability, T/C (second compound 0.1 µM, first compound 0.000949 µM) 3.66% | viability, T/C (second compound 0.1 µM, first compound 0.003 µM) 3.77% | viability, T/C (second compound 0.1 µM, first compound 0.00949 µM) 3.89% | viability, T/C (second compound 0.1 µM, first compound 0.03 µM) 4.03% | viability, T/C (second compound 0.1 µM, first compound 0.0949 µM) 3.01% | viability, T/C (second compound 0.1 µM, first compound 0.3 µM) 1.56% | viability, T/C (second compound 0.316 µM, first compound 0.000949 µM) 3.76% | viability, T/C (second compound 0.316 µM, first compound 0.003 µM) 2.6% | viability, T/C (second compound 0.316 µM, first compound 0.00949 µM) 3.46% | viability, T/C (second compound 0.316 µM, first compound 0.03 µM) 3.21% | viability, T/C (second compound 0.316 µM, first compound 0.0949 µM) 1.59% | viability, T/C (second compound 0.316 µM, first compound 0.3 µM) 1.68% | viability, T/C (second compound 1 µM, first compound 0.000949 µM) 2.91% | viability, T/C (second compound 1 µM, first compound 0.003 µM) 3.81% | viability, T/C (second compound 1 µM, first compound 0.00949 µM) 3.53% | viability, T/C (second compound 1 µM, first compound 0.03 µM) 5.05% | viability, T/C (second compound 1 µM, first compound 0.0949 µM) 2.15% | viability, T/C (second compound 1 µM, first compound 0.3 µM) 1.55%
< 0.949 nM: IC50 (curve of first compound, second compound 0.01 µM) | IC50 (curve of first compound, second compound 0.0316 µM) | IC50 [1] | IC50 [2] | IC50 [3]

NC(=O)C(=Cn1cnc(-c2cc(C(F)(F)F)cc(C(F)(F)F)c2)n1)c1cncnc1
9.22% and 11.1% and 7.62%: viability, T/C (compound 0.0949 µM)
active: viability, T/C (compound 0.3 µM) 6.01% and 7.26% and 5.35%
inactive: viability, T/C (compound 0.000949 µM) 112% and 103% and 99.9% | viability, T/C (compound 0.003 µM) 101% and 99.4% and 88.3% | viability, T/C (compound 0.00949 µM) 79% and 71.1% and 58.7% | viability, T/C (compound 0.03 µM) 48.9% and 49.5% and 27.4%
25.1 nM and 23.9 nM and 13.1 nM: IC50 (curve of compound)

O=C(c1cc(Cc2n[nH]c(=O)c3ccccc23)ccc1F)N1CCN(C(=O)C2CC2)CC1 + Cc1c(S(C)(=O)=O)c(-c2cc(F)cc(N3CCN(c4ccc(NS(=O)(=O)c5ccc(NC(CCN6CCC(C(=O)OCCCP(=O)(O)O)CC6)CSc6ccccc6)c(S(=O)(=O)C(F)(F)F)c5)cc4)CC3)c2)c(-c2ccc(Cl)cc2)n1C(C)C
inactive: viability, T/C [6] 98% | viability, T/C [7] 93.4% | viability, T/C [8] 85.8% | viability, T/C [9] 95.6% | viability, T/C (second compound 0.1 µM, first compound 3.16 µM) 99.8% | viability, T/C (second compound 0.1 µM, first compound 10 µM) 89.5% | viability, T/C [10] 88.8% | viability, T/C [11] 102% | viability, T/C [12] 103% | viability, T/C [13] 88.3% | viability, T/C (second compound 0.316 µM, first compound 3.16 µM) 94.3% | viability, T/C (second compound 0.316 µM, first compound 10 µM) 87.1% | viability, T/C [14] 91.4% | viability, T/C [15] 96.9% | viability, T/C [16] 88.2% | viability, T/C [17] 89% | viability, T/C (second compound 1 µM, first compound 3.16 µM) 83.5% | viability, T/C (second compound 1 µM, first compound 10 µM) 81.2% | viability, T/C [18] 89.9% | viability, T/C [19] 83.6% | viability, T/C [20] 84.5% | viability, T/C [21] 86% | viability, T/C (second compound 3.16 µM, first compound 3.16 µM) 78.3% | viability, T/C (second compound 3.16 µM, first compound 10 µM) 66.3% | viability, T/C [22] 73.2% | viability, T/C [23] 74.9% | viability, T/C [24] 71.6% | viability, T/C [25] 71.8% | viability, T/C (second compound 10 µM, first compound 3.16 µM) 74% | viability, T/C (second compound 10 µM, first compound 10 µM) 57.9%
> 10000 nM: IC50 [1] | IC50 [2] | IC50 [3] | IC50 [4] | IC50 [5]

CCN1CCN(Cc2ccc(Nc3ncc(F)c(-c4cc(F)c5nc(C)n(C(C)C)c5c4)n3)nc2)CC1 + Cc1c(S(C)(=O)=O)c(-c2cc(F)cc(N3CCN(c4ccc(NS(=O)(=O)c5ccc(NC(CCN6CCC(C(=O)OCCCP(=O)(O)O)CC6)CSc6ccccc6)c(S(=O)(=O)C(F)(F)F)c5)cc4)CC3)c2)c(-c2ccc(Cl)cc2)n1C(C)C
inactive: viability, T/C (second compound 0.1 µM, first compound 0.00316 µM) 101% | viability, T/C (second compound 0.1 µM, first compound 0.01 µM) 95.4% | viability, T/C [6] 101% | viability, T/C [7] 104% | viability, T/C [8] 102% | viability, T/C [9] 109% | viability, T/C (second compound 0.316 µM, first compound 0.00316 µM) 94.1% | viability, T/C (second compound 0.316 µM, first compound 0.01 µM) 102% | viability, T/C [10] 92.6% | viability, T/C [11] 104% | viability, T/C [12] 104% | viability, T/C [13] 113% | viability, T/C (second compound 1 µM, first compound 0.00316 µM) 92.2% | viability, T/C (second compound 1 µM, first compound 0.01 µM) 91.7% | viability, T/C [14] 92.2% | viability, T/C [15] 102% | viability, T/C [16] 104% | viability, T/C [17] 105% | viability, T/C (second compound 3.16 µM, first compound 0.00316 µM) 90.2% | viability, T/C (second compound 3.16 µM, first compound 0.01 µM) 88.8% | viability, T/C [18] 80.1% | viability, T/C [19] 85.3% | viability, T/C [20] 93.1% | viability, T/C [21] 86% | viability, T/C (second compound 10 µM, first compound 0.00316 µM) 77.2% | viability, T/C (second compound 10 µM, first compound 0.01 µM) 76.2% | viability, T/C [22] 81.4% | viability, T/C [23] 83.6% | viability, T/C [24] 86.2% | viability, T/C [25] 80.8%
> 1000 nM: IC50 [1] | IC50 [2] | IC50 [3] | IC50 [4] | IC50 [5]

C=CC(=O)N1CCN(c2nc(=O)n(-c3c(C)ccnc3C(C)C)c3nc(-c4c(O)cccc4F)c(F)cc23)C(C)C1 (centres undefined)
inactive: viability, T/C (compound 0.0316 µM) 92% and 102% and 106% | viability, T/C (compound 0.1 µM) 94.8% and 110% and 103% | viability, T/C (compound 0.316 µM) 103% and 93.4% and 109% | viability, T/C (compound 1 µM) 99.8% and 106% and 112% | viability, T/C (compound 3.16 µM) 97.6% and 103% (2×) | viability, T/C (compound 10 µM) 95.1% and 114% and 91.3%
> 10000 nM: IC50 (curve of compound)
